Source: PMC9964746, “Mechanism of Action and Structure–Activity Relationships of Tetracyclic Small Molecules Acting as Universal Positive Allosteric Modulators of the Cholecystokinin Receptor” (Membranes, 2023)
Where “and” joins values, the source holds several entries; their conditions need not be identical. Identical values can stand only once.

Legend:
Assay type in all cases: cell-based
[1] = target: T1, vasopressin-2 receptor (AVP2R) (Homo sapiens, UniProt P30518); assay: AVP2R cAMP HTRF accumulation assay; settings: for AVP2R PAM (cAMP) Score (activity score = normalized Emax × pEC50): PAM format; for EC50 / Emax: PAM format with vasopressin, original hits: agonist and PAM data combined, average ± SD
T1 construct: expressed in transfected cells; host or cells: CHO-K1 (PAM format); HEK-293 (agonist format)
Experimental: Possible off-target biological effects. […] Here, we tested them at the vasopressin-2 receptor (AVP2R), representing a class A GPCR structurally related to CCK1R, which is coupled to Gs. The activity at AVP2R was tested using AVP2R-overexpressing CHO-K1 (PAM format) or HEK-293 (agonist format) cells, stimulating the cells with vasopressin. Original hits were tested in both agonist and PAM formats. Since all recognized compound responses were present in both formats, we continued to screen analogs in only the PAM format (also able to capture agonist effects) in CHO-K1 AVP2R cells for potential enhanced sensitivity. The dose–response data sets for original hits were combined, as the PAM and agonist effects were indistinguishable. In brief, arginine vasopressin (AVP) orthosteric stimulator dilutions and ligand and compound dose–response titrations in DMSO were transferred onto a 1536-well plate (Corning #3725) using an Echo liquid handler (Labcyte). Thawed cryopreserved cell stocks were diluted in stimulation buffer consisting of HBSS (Hank’s Balanced Salt Solution with Ca^2+ and Mg^2+, Gibco #24020117), 5 mM HEPES (hydroxyethyl piperazineethanesulfonic acid), 0.5 mM IBMX (3-isobutyl-1-methylxanthine, Sigma-Aldrich), and 0.075% BSA (7.5% DTPA-purified bovine serum albumin, PerkinElmer). The resulting cell suspension was added to the microplate and incubated with test compounds at room temperature for 30 min. Then, the detection reagents from the Cisbio cAMP Gs Dynamic HTRF detection kit were added. The plate was kept at room temperature for 30 min and read on a PHERAstar FSX microplate reader. Dose–response curves were performed as 16-point 2-fold dilutions in duplicate in at least two independent experiments.

CCK1R [2] = target: T2, CCK1R (Homo sapiens, UniProt P32238); assay: IP-One accumulation TR-FRET assay, PAM format, HEK-293 CCK1R cells; parameters: expressed in transfected cells; host or cells: HEK-293; settings: for Emax: HEK293, relative to CCK control; for Emax / CCK1R PAM (IP-One) Score (activity score = normalized Emax × pEC50) / EC50: HEK-293 CCK1R cells; for Emax / CCK1R PAM (IP-One) Score (activity score = normalized Emax × pEC50): PAM format; for Emax / EC50: average ± SD; for EC50: PAM format with EC20 CCK; for CCK1R IP-One activity (in words): PAM and agonist formats
T2 sequence (P32238 1-428): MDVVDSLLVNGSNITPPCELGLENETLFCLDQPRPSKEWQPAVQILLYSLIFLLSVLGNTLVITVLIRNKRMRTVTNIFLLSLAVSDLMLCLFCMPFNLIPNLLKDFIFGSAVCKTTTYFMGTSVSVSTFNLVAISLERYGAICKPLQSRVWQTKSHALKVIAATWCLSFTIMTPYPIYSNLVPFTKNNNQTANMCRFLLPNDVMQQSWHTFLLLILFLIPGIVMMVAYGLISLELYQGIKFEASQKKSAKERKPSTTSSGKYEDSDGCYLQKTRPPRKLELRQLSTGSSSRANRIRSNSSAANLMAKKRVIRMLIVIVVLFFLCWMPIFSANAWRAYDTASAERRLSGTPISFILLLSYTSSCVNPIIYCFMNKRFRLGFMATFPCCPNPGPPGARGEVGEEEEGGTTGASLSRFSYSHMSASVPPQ
Experimental: (§1) For structure–activity relationship studies, we performed myo-inositol-1-phosphate (IP-One) accumulation assays with TR-FRET technology applied to the HEK-293 cell line overexpressing CCK1Rs, as we had described in our high throughput screening effort. In brief, thawed cryopreserved cell stocks were re-suspended in IP-One assay media consisting of phenol-red free DMEM (Corning, Corning, NY, USA, #17-205-CV) with 10% FBS, 1% penicillin (10,000 units)/streptomycin (10 mg) (Pen/Strep, Thermo Fisher Scientific, Waltham, MA, USA, Gibco #15140122), and 1% L-glutamine (200 mM) (Gibco #25030081) and diluted to required cell densities. Then, the cell suspension was dispensed into a 1536-well tissue culture microplate (Corning, #3727), and the plate was incubated overnight at 37 °C and 5% CO^2. After 16–20 h, DMSO or compounds were added with an Echo liquid handler (Labcyte, San Jose, CA, USA), resulting in a top final compound concentration of 50 µM diluted 2-fold for 16-point dose–responses. For the positive allosteric modulator (PAM) format, orthosteric stimulator (CCK) dilutions for control wells were prepared in assay media containing 150 mM lithium chloride (LiCl, 50 mM final, Sigma-Aldrich, St Louis, MO, USA, #L7026). After a 30 min incubation of test compounds at 37 °C and 5% CO2, orthosteric stimulator dilutions (for PAM format) or equivalent dilutions of DMSO (for agonist format) were added to designated wells using BioRaptr (Beckman Coulter, Brea, CA, USA). In addition, CCK control ligand dilutions were included on each test plate. After that, the plate was incubated for 1 h at 37 °C and 5% CO^2 and equilibrated to room temperature. Detection reagents from the IP-One Gq detection kit from Cisbio (Cisbio US Inc., Bedford, MA, USA, #62IPAPEJ) were added, and after 1 h at RT, IP-One content was measured with a PHERAstar FSX microplate reader (BMG Labtech, Ortenberg, Germany). Control ligand dose–responses were analyzed using GraphPad Prism 9.3.1 (San Diego, CA, USA) to validate adequate control and test well concentrations for positive allosteric modulation (PAM) and agonist formats. Dose–response curves were performed as 16-point 2-fold dilutions in duplicates in at least three independent experiments. Large data sets were uploaded and analyzed with CBIS (Chemical and Biology Information System software, ChemInnovation Software, Inc., San Diego, CA, USA). Further data analysis for detailed SAR studies was conducted using the D360 software (Certara).
(§2) The potency and efficacy data for these compounds were used to calculate their activity scores using the following formula: Activity Score = normalized Emax × pEC50. Normalized Emax represents the efficacy of the compound as a fractional response relative to that of the CCK control ligand. pEC50 represents the positive logarithmic value of compound EC50 concentrations in (M).

CCK1R [3] = target: T2, CCK1R; assay: IP-One accumulation TR-FRET assay, agonist format, HEK-293 CCK1R cells; parameters: expressed in transfected cells; host or cells: HEK-293; settings: for Emax: HEK293, relative to CCK control, read-out: CCK1R Ago (IP-One) Emax; for Emax / EC50: average ± SD; for EC50: read-out: CCK1R Ago (IP-One) EC50
Experimental: as §1, §2

T1 sequence (P30518 whole entry): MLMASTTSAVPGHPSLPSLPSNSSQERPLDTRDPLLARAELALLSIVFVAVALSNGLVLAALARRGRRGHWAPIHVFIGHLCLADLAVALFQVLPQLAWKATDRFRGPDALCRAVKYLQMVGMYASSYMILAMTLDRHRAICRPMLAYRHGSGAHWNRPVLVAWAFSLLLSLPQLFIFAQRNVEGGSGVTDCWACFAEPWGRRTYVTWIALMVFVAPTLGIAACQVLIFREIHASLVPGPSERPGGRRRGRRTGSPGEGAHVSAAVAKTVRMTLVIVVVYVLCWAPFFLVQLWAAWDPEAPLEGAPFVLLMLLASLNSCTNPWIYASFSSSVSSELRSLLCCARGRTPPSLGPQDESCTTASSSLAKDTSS

SMILES	AVP2R PAM (cAMP) Score (activity score = normalized Emax × pEC50) ([1]; CHO-K1 AVP2R cells)	EC50 ([1]; CHO-K1 AVP2R cells) [µM]	Emax ([1]; CHO-K1 AVP2R cells) [%]	Emax (CCK1R [2]) [%]	CCK1R PAM (IP-One) Score (activity score = normalized Emax × pEC50) (CCK1R [2])	EC50 (CCK1R [2]) [µM]	CCK1R Ago (IP-One) Score (activity score = normalized Emax × pEC50) (CCK1R [3])	Emax (CCK1R [3]) [%]	Log(Rmax/R50) (CCK1R [2]; CCK1R IP-One PAM assay)	EC50 (CCK1R [3]) [µM]	CCK1R IP-One activity (in words) (CCK1R [2])	Emax ([1]; CHO-K1, CHO-K1 AVP2R cells) [%]
CCN(CC)CCNc1ncnc2c1sc1nc(N3CCCCC3)c3c(c12)CCCC3 [CMP-6]	1.7 and 1.67	9.9 ± 0.5	33 ± 1	57 ± 27	2.6 and 2.58	13.8 ± 3.2	0	0	–	–	–	–
CCCc1nc2sc3c(SC)ncnc3c2c2c1CCCC2 [CMP-38]	0	–	0	20 ± 7.6	1.0 and 1.01	7.6 ± 3.3	0	0	4.4	–	–	–
NCCNc1ncnc2c1sc1nc(N3CCCCC3)c3c(c12)CCCC3 [CMP-22]	2.9 and 2.92	2.7 ± 0.7	52 ± 4	39 ± 11	1.9 and 1.87	12.2 ± 4.6	2.76	60 ± 4.5	–	26.9 ± 1.1	–	–
c1nc(N2CCCC2)c2sc3nc(N4CCOCC4)c4c(c3c2n1)CCCC4 [CMP-64]	0	–	0	–	–	–	0	0	–	–	significantly diminished responses	–
CN(C)CCCNc1nnnc2c1sc1nc(N3CCCCC3)c3c(c12)CCCC3 [CMP-23]	2.9 and 2.93	3.1 ± 1.3	53 ± 3	38 ± 13	1.86	9.6 ± 3.6	1.85	41 ± 1	–	30 ± 4.9	–	–
C/C(Br)=C\CSc1ncnc2c1sc1nc(N3CCOCC3)c3c(c12)CCCC3 [CMP-44]	0	–	0	0	0	–	0	0	–	–	displayed no effects	–
CCCc1nc2sc3c(NCCN(CC)CC)ncnc3c2c2c1CCCC2 [CMP-7]	1.6 and 1.61	6.5 ± 4.2	31 ± 2	48 ± 11	2.4 and 2.39	8 ± 2.1	0	–	–	–	–	–
OCCNc1ncnc2c1sc1nc(N3CCOCC3)c3c(c12)CCCC3 [CMP-49]	0	–	–	0	0	–	0	0	–	–	None of these analogs showed any CCK1R activity	0
CCCc1nc2oc3c(NCCCN(CC)CC)ncnc3c2c2c1CCCC2 [CMP-36]	1.41	6.1 ± 2.8	27 ± 20	25 ± 10	1.32	3.3 ± 5.4	0	–	–	–	–	–
CCCc1nc2oc3c(NN)ncnc3c2c2c1CCCC2 [CMP-53]	2.95	15.3 ± 9.8	61 ± 12	0	0	–	0	0	–	–	–	–
O=C(O)CSc1ncnc2c1sc1nc(N3CCOCC3)c3c(c12)CCCC3 [CMP-45]	1.46	37.9 ± 7	33 ± 13	0	0	–	0	0	–	–	displayed no effects	–
OCCN1CCN(c2ncnc3c2sc2nc(-c4ccccc4)c4c(c23)CCC4)CC1 [CMP-37]	0	–	0	28 ± 9	1.26	31.7 ± 1.2	0	0	–	–	loss of activities across all formats	–
CN(C)CCNc1ncnc2c1sc1nc(N3CCCCC3)c3c(c12)CCCC3 [CMP-35]	1.6 and 1.59	7.9 ± 2.5	31	36 ± 20	1.5 and 1.49	31.3 ± 14.9	0	0	–	–	–	–
CC(C)Cc1nc2oc3c(NCCCN(C)C)ncnc3c2c2c1CCC2 [CMP-13]	1.4 and 1.35	12.6 ± 7.9	28 ± 14	52 ± 36	2.2 and 2.23	11.2 ± 4.2	0	–	–	–	–	–
CCCc1nc2sc3c(NCCCN(C)C)ncnc3c2c2c1CCCC2 [CMP-18]	2.0 and 1.99	11.8 ± 14	40 ± 17	43 ± 21	2.0 and 1.96	12.7 ± 5.5	0	–	–	–	–	–
